Measured values published in publication PMC7922534, “Searching for Peptide Inhibitors of T Regulatory Cell Activity by Targeting Specific Domains of FOXP3 Transcription Factor” (Biomedicines, 2021).

Tests used:
[1] = tested on: murine CD4+CD25+ Treg cells; test: In vitro Treg inhibition: anti-CD3 stimulated effector T cells co-cultured with Treg cells, tritiated thymidine incorporation; type: cell-based, mouse; conditions: peptide 50 μM, BALB/c Teff 10^5 + Treg 10^4 cells/well, 3 days, tritiated thymidine
Procedure: (§1) In vitro assays were carried out using (i) the Karpas 299 human cell line (ACC-31, DSMZ, Germany), derived from a human lymphoma with a regulatory T cell profile or (ii) using natural Treg cells isolated from the murine splenocytes. To evaluate the effect of peptides on the immunosuppressive activity of the Karpas 299 cell line, a “mixed lymphocyte reaction” (MLR) assay was carried out using peripheral blood mononuclear cells (PBMCs) from two donors (previously tested to induce a strong MLR reaction in co-culture) (1 × 10^5 cells/well per each PBMC) in the presence or absence of Karpas 299 (1 × 10^4 cells/well). Peptides were added at 50 μM to the co-cultures to evaluate their capacity to restore the production of interferon-gamma (IFN-γ) inhibited by Karpas 299. After 48 hours, the supernatants were extracted to measure interferon-gamma (IFN-γ) by means of a commercial ELISA (Pharmingen, San Diego, CA, US). In vitro assays for Treg inhibition using natural Treg cells: Murine CD4+CD25+ (Treg cells), and CD4+CD25-T-cells (effector T cells) were purified from murine spleen cells by using a murine regulatory T-cell isolation kit (Miltenyi Biotec, Bergisch Gladbach, Germany) according to the manufacturer’s instructions. The purity of the resulting T-cell populations was confirmed to be >95% by flow cytometry. Inhibition of murine T regulatory cell function was measured in an in vitro assay of T-cell stimulation. Effector T cells (10^5 cells/well) from BALB/c mice were stimulated in vitro with 2, 5 μg/mL of anti-mouse CD3 antibody (Pharmingen) in the presence/absence of purified Treg cells (10^4 cells/well) and the indicated peptides (50 μM). T-cell proliferation was measured 3 days later as previously described. Percentage of Treg inhibition was calculated using the following formula: % inhibition= 100*((cpm of Teff&Treg co-cultures in the presence of peptide - cpm of Teff&Treg co-cultures)/(cpm of Teff - cpm of Teff&Treg co-cultures)). The Institutional Review Board on Human Subjects (Clínica Universidad de Navarra, Ref 2016.118) approved this research, and informed consent was obtained from all blood donors.

FOXP3 homodimerization [2] = test: FOXP3 dimerization by Alphascreen; type: binding; conditions: alpha screen
FOXP3/NFAT1 = test: FOXP3/NFAT interaction by Alphascreen; type: binding; conditions: alpha screen; Figure 6C
Procedure: (§2) The screening of peptide binders to FOXP3 was performed by surface plasmon resonance (SPR) using a ProteOn XPR36 (Bio-Rad, Hercules CA, USA) optical biosensor. Recombinant protein FOXP3-6His produced and purified from E-coli was immobilized covalently onto a GLC sensor chip (Bio-Rad) using the coupling reagents sulfo-NHS (N-Hydroxysulfosuccinimide) and EDC (1-Ethyl-3-(3-dimethylaminopropyl) carbodiimide, (Bio-Rad) as previously described. Peptide solutions (10 μM) were injected by triplicate in running buffer (phosphate-buffered saline, 0.005% (v/v) Tween 20, pH 7.4) at a flow of 30 μL/min. The interspot signal (obtained in the chip surface not immobilized with protein) was used as reference. FOXP3/NFAT1 and FOXP3/AML1 interactions were analyzed by Alphascreen technology as previously described according to the manufacturer’s protocol (Perkin Elmer, Benelux). Reactions were performed in a 40 μL final volume in 96-well Optiwell microtiter plates (Perkin Elmer). […] FOXP3/AML1 interaction was measured following a similar protocol using FOXP3-GST and AML1-His proteins. Exposure of the reaction to direct light was avoided as much as possible, and the emission of light from the acceptor beads was measured in the EnVision plate reader after the indicated incubation period (Perkin Elmer, Benelux).

Foxp3–NFAT interaction = test: Co-immunoprecipitation and Western blot of Flag-Foxp3 and HA-NFAT in HEK293 cells; type: cell-based; conditions: HEK293 cells transfected with Flag-Foxp3 and HA-NFAT, peptide 100 μM; Figure 7
Procedure: HEK293 cells were cultured in Dulbecco modified Eagle medium (Invitrogen) supplemented with 8% heat-inactivated fetal calf serum (FCS), penicillin, and streptomycin (Invitrogen) at 37 °C and 5% CO2. Plasmids cells were grown to 50% confluence in 6-well plates (Nunc) and transfected with a mixture of 2 μg of DNA plasmids (1 μg of FLAG-FOXP3 (expressing Foxp3 linked to the DYKDDDDK peptide tag and 1 μg of HA-NFAT expressing NFAT linked to the […] peptide tag), kindly provided by Dr Paul, Coffer, Utrech, The Netherlands)) and 8 μL PEI (polyethylenimine) overnight; the next day, cells were treated with 393–403 L, 397–406 C, or an irrelevant peptide at 100 μM. Twenty four hour later, HEK 293 cells were lysed in NP40 lysis buffer (0.05 M Tris-HCl pH 7.5, 0.5% Nonidet P40, 0.15 M NaCl, 0.01 M EDTA) containing a HALT^TM protease inhibitor cocktail (ThermoScientific), and immunoprecipitation was performed utilizing anti-FLAG coupled beads (Sigma) during 2 h at 4 C. Beads were washed 3x in lysis buffer, boiled, and samples were separated by SDS-PAGE, electrophoretically transferred to polyvinylidene difluoride membrane (Millipore, Bedford, MA), and hybridized with antibodies as indicated. Immunocomplexes were detected using enhanced chemiluminescence (Biorad).

FOXP3/AML1 [3] = conditions: cited from earlier work
Source text: (§3) A P60 peptide optimization program including alanine scanning, the introduction of D-aminoacids, or head-to-tail cyclization allowed us to improve its stability and efficacy in vitro and in vivo [23].

FOXP3 homodimerization [4] = conditions: cited from earlier work
Source text: as §3

[5] = tested on: Karpas 299 human cell line; test: Mixed lymphocyte reaction with Karpas 299 Treg cell line, IFN-γ by ELISA; type: cell-based; conditions: MLR of PBMCs from two donors + Karpas 299, peptide 50 μM, 48 h
Procedure: as §1

4T1-FOXP3 cells = test: Proliferation of 4T1-Ctrl and 4T1-FOXP3 tumor cells in vitro; type: cell-based; conditions: peptide 50 μM, Figure 2C
Procedure: The cell line 4T1-FOXP3 expressing FOXP3 was generated. 4T1-WT cells were transfected with empty pcDNA3.1 or with pcDNA3.1 FOXP3, expressing FOXP3 gene and neomycin (which confers resistance to G418 antibiotic) to generate 4T1-Ctrl and 4T1-Foxp3 cells. Briefly, 8 × 10^5 cells were seeded in 6-well culture plates one day prior to transfection. The cultures were 60–80% confluent at the time of transfection. Cells were transfected with 5 ug plasmid DNA per well for 6 hours using lipofectimine 2000 transfection reagent (Invitrogen). After 48 hours, 0.3 mg/mL of G418 drug (GIBCO) was added to the culture during 14 days for the selection of resistant cells. These cells were used in vitro to measure the effect of peptides to overcome the proliferative capacity inhibited by FOXP3. In addition, 4T1-FOXP3 and 4T1-Ctrl cells were injected in vivo (10^5 cells/ mouse) subcutaneously or intravenously to compare their capacity to induce tumors and lung metastases. Murine Lewis lung carcinoma expressing OVA, LLCOVA were kindly provided by Dr. Daniel Ajona (CIMA). The murine colon adenocarcinoma cell line MC38, LLOOVA, 4T1-Ctrl, and 4T1-FOXP3 were cultured in mouse medium (RPMI 1640, 10% fetal calf serum (Sigma), 100 U/mL penicillin, 100 μg/mL streptomycin (Invitrogene), […] Gentamicin (Gibco), 2 mM L-Glutamine (Lifetechnologies), […] β-mercaptoethanol (Sigma), and fungizone (GIBCO). All cell lines were cultured at 37 °C in a humidified atmosphere with 6.5% CO2.

FOXP3 = conditions: cited from earlier work
Procedure: (§4) The P60 peptide was able to improve the antitumor effect of other immunotherapeutic approaches constituting a potential candidate drug to inhibit Treg activity. An alanine scanning was conducted to identify key positions within the P60 sequence for FOXP3 binding P60. The introduct ...

Treg = conditions: cited from earlier work
Procedure: as §4

[6] = cited from earlier work
Procedure: as §4

FOXP3:NFAT = conditions: cited from earlier work
Source text: (§5) We have also focused on the screening campaign of peptides derived from the FOXP3 FKH domain (Section 3.3). Although we identified several peptides encompassing the intermediate region of FKH with high capacity to bind to FOXP3, we focused on peptide […]-407, based on its ability to inhibit Treg activity in vitro.

[7] = cited from earlier work; remark: listed apart in the source
Source text: as §5

hepatocellular carcinoma = conditions: murine model of hepatocellular carcinoma; cited from earlier work
Source text: as §5

T-cells = conditions: cited from earlier work
Source text: We focused on a peptide encompassing aminoacids 393–403, which correspond to a region implicated in FOXP/NFAT interaction, which is also key for Treg suppressive activity. FOXP3/NFAT interaction can regulate NFAT activity by (i) competing for binding to DNA [60, 61], (ii) by sequestering NFAT or other NFAT partners, or (iii) by forming a cooperative complex. The cooperative complex between FOXP3 and NFAT is required to repress the expression of the cytokine IL2, upregulate the expression of the Treg markers CTLA4 and CD25, and confer suppressor function. ...

FOXP3/AML1 [8] = test: FOXP3/AML1 interaction by Alphascreen; type: binding; conditions: Figure 3C
Procedure: as §2

KEKLSAMQAHLAGKM [p250–265, 15-mer peptide from the leuzin zipper domain of FOXP3]
Treg inhibitory capacity in vitro (proliferation of effector T cells with anti-CD3 in presence of Treg) [1]: able to fully restore the proliferative capacity of effector T-cells | inhibitory activity on FOXP3 homodimerization (FOXP3 homodimerization [2]): could not demonstrate an inhibitory activity

397–406 C: macrocycle consisting of a head-to-tail cyclization of peptide 397–406 (RVESEKGAVW; head-to-tail (backbone) cyclization)
Treg inhibitory capacity in vitro (proliferation of effector T cells with anti-CD3 in presence of Treg) [1]: improved the Treg inhibitory capacity | disruption of FOXP3-NFAT heterodimerization (FOXP3/NFAT1): retained the activity to impair Foxp3/NFAT interaction | interaction between Foxp3 and NFAT by co-immunoprecipitation (Foxp3–NFAT interaction): able to reduce significantly the interaction

RDFQSFRKMWPFFAM [p60]
FOXP3/AML1 interaction (FOXP3/AML1 [3]): impairing | FOXP3 dimerization (FOXP3 homodimerization [4]): impairing FOXP3 dimerization | Treg inhibitory capacity (Karpas MLR assays) [5]: potential Treg inhibitory capacity | effect on tumor-suppressor activity of FOXP3 (proliferation of 4T1-FOXP3 versus 4T1-Ctrl cells) (4T1-FOXP3 cells): does not alter the antitumor activity of FOXP3 | FOXP3 nuclear translocation (FOXP3): impair FOXP3 nuclear translocation | Treg activity in vitro and in vivo (Treg): inhibit Treg activity in vitro and in vivo | ability to enter into the cells [6]: able to enter into the cells

KCFVRVESEKG [F393–403, truncated version of peptide F393–407]
Treg inhibitory capacity in vitro (proliferation of effector T cells with anti-CD3 in presence of Treg) [1]: able to inhibit Treg activity in vitro | FOXP3:NFAT interaction (FOXP3:NFAT): able to inhibit FOXP3:NFAT interaction | pharmacokinetics in vivo [7]: poor pharmacokinetics in vivo | antitumor activity of in vivo peptide administration (hepatocellular carcinoma): had antitumor activity | interaction between Foxp3 and NFAT by co-immunoprecipitation (Foxp3–NFAT interaction): able to reduce significantly the interaction | T-cell proliferation and cytokine production in response to TCR stimulation (T-cells): enhanced T-cell proliferation and the production of cytokines IL-2, IFN-γ, or IL-17

SLFAVRRHLWGSHGN [F304–318]
Treg inhibitory capacity in vitro (proliferation of effector T cells with anti-CD3 in presence of Treg) [1]: able to inhibit Treg activity | disruption of FOXP3/AML1 heterodimerization (FOXP3/AML1 [8]): able to impair FOXP3/AML1 heterodimerization
